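Step 1: Grow cells in 96-well plates. Step 2: Expose to compound for 48 hours at 5 concentrations. Step 3: Interpolate endpoints linearly; if unreached, use highest concentration. Abbreviation: GI50, concentration required for 50% inhibition of growth.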 Active and inactive are the calls of the source. Cut-off read from the data, not from the text of the source: active = GI50 up to about 1.1 µM and inactive = higher.
Experiments:
Experiment in all cases: NCI tumour cell line growth inhibition, 48 h
[1] = system: CAKI-1
[2] = system: KM12
[3] = system: CCRF-CEM
[4] = system: NCI/ADR-RES
[5] = system: NCI-H23
[6] = system: SF-295
[7] = system: MOLT-4
[8] = system: UACC-257
[9] = system: A549
[10] = system: MDA-N
[11] = system: OVCAR-3
[12] = system: K562
[13] = system: ACHN
[14] = system: SNB-19
[15] = system: SW-620
[16] = system: MDA-MB-231
[17] = system: SK-MEL-2
[18] = system: HOP-62
[19] = system: NCI-H226

| SMILES | GI50 [1] | GI50 [2] | GI50 [3] | GI50 [4] | GI50 [5] | GI50 [6] | GI50 [7] | GI50 [8] | GI50 [9] | GI50 [10] | GI50 [11] | GI50 [12] | GI50 [13] | GI50 [14] | GI50 [15] | GI50 [16] | GI50 [17] | GI50 [18] | GI50 [19] |
| --- | --- | --- | --- | --- | --- | --- | --- | --- | --- | --- | --- | --- | --- | --- | --- | --- | --- | --- | --- |
| COC1=CC(=O)c2c(cc(COP(=O)(N(C)CCBr)N(C)CCBr)n2C)C1=O | < 0.0182 µM (active) | 4.04 µM (inactive) | 0.0356 µM (active) | 1.24 µM (inactive) | < 0.0212 µM (active) | < 0.0164 µM (active) | < 0.0173 µM (active) | 2.7 µM (inactive) | 0.185 µM (active) | 1.21 µM (inactive) | 2.16 µM (inactive) | 1.52 µM (inactive) | < 0.0108 µM (active) | 0.798 µM (active) | 0.187 µM (active) | 3.91 µM (inactive) | 1.89 µM (inactive) | < 0.0322 µM (active) |  |
| O=C(/C=C/c1ccc(O)c(O)c1O)OCCc1ccccc1 | > 100 µM (inactive) | 28.9 µM (inactive) |  | 29.8 µM (inactive) | 22.9 µM (inactive) | 19.2 µM (inactive) | 23.6 µM (inactive) | > 100 µM (inactive) | 26.2 µM (inactive) | 13 µM (inactive) | 21.6 µM (inactive) | 11.6 µM (inactive) | 39.2 µM (inactive) | 49.9 µM (inactive) | 20.9 µM (inactive) | 24.9 µM (inactive) | 61.9 µM (inactive) | 26.2 µM (inactive) | 27.7 µM (inactive) |
| CC(C)/C(Cl)=N\OC(NC(=O)P(=O)(c1ccccc1)c1ccccc1)(C(F)(F)F)C(F)(F)F | 23.7 µM (inactive) | 7.26 µM (inactive) | 5.01 µM (inactive) | 12.8 µM (inactive) | 2.99 µM (inactive) | 11.6 µM (inactive) | 8.05 µM (inactive) | 17.8 µM (inactive) | 5.15 µM (inactive) | 19.5 µM (inactive) | 4.97 µM (inactive) | 4.25 µM (inactive) | 3.62 µM (inactive) | 17.9 µM (inactive) | 21.7 µM (inactive) | 16 µM (inactive) |  | 17.3 µM (inactive) | 10.3 µM (inactive) |
| CC(C)(Cl)C(Br)CCC(C)(Br)C(Br)CBr (stereo unspecified) |  | 17.8 µM (inactive) | 10.5 µM (inactive) | 17 µM (inactive) | 19.5 µM (inactive) | 17.7 µM (inactive) | 19.6 µM (inactive) | 18.7 µM (inactive) | 30.1 µM (inactive) | 19.5 µM (inactive) | 15.9 µM (inactive) | 23 µM (inactive) | 17.4 µM (inactive) | 23.1 µM (inactive) | 16.3 µM (inactive) | 12.9 µM (inactive) | 14.7 µM (inactive) | 16.1 µM (inactive) | 18.8 µM (inactive) |
| C=CCN1CCC(OC(=O)C(O)(C#CC)C2CCCC2)CC1 (stereo unspecified) | > 100 µM (inactive) | > 100 µM (inactive) |  | > 100 µM (inactive) | > 100 µM (inactive) | > 100 µM (inactive) | > 100 µM (inactive) | > 100 µM (inactive) | > 100 µM (inactive) | > 100 µM (inactive) | > 100 µM (inactive) |  | > 100 µM (inactive) | > 100 µM (inactive) | > 100 µM (inactive) | > 100 µM (inactive) | > 100 µM (inactive) | > 100 µM (inactive) | > 100 µM (inactive) |
| Cc1cs/c(=N/c2ccccc2)n1CCC(O)(P(=O)(O)O)P(=O)(O)O | > 100 µM (inactive) | > 100 µM (inactive) |  | > 100 µM (inactive) | > 100 µM (inactive) | > 100 µM (inactive) |  | > 100 µM (inactive) | > 100 µM (inactive) | > 100 µM (inactive) | > 100 µM (inactive) |  | 67.3 µM (inactive) | > 100 µM (inactive) |  | > 100 µM (inactive) |  | > 100 µM (inactive) | > 100 µM (inactive) |
| Cc1nc(N)sc1C(=O)Nc1nc[nH]n1 | > 100 µM (inactive) | > 100 µM (inactive) |  | > 100 µM (inactive) | > 100 µM (inactive) | > 100 µM (inactive) | 52.1 µM (inactive) | > 100 µM (inactive) | > 100 µM (inactive) | > 100 µM (inactive) | > 100 µM (inactive) | > 100 µM (inactive) | > 100 µM (inactive) | > 100 µM (inactive) | > 100 µM (inactive) | > 100 µM (inactive) | > 100 µM (inactive) | > 100 µM (inactive) | > 100 µM (inactive) |
| CCOC(=O)N(C)CCC1CC=CC(=O)C1c1cccc(OC)c1OC (stereo unspecified) | 20.9 µM (inactive) | 14.1 µM (inactive) | 10.6 µM (inactive) | 19.8 µM (inactive) | 14 µM (inactive) | 31 µM (inactive) | 22.5 µM (inactive) | 13.4 µM (inactive) | 25.4 µM (inactive) | 13.1 µM (inactive) | 11.8 µM (inactive) | 23.2 µM (inactive) | 34 µM (inactive) | 23.3 µM (inactive) | 20.9 µM (inactive) | 26.1 µM (inactive) | 13.7 µM (inactive) | 24.4 µM (inactive) |  |
| COc1cc(OCc2ccccc2)c2c(CCC(=O)O)cc(=O)oc2c1.COc1cc(OCc2ccccc2)cc2oc(=O)cc(CCC(=O)O)c12 | 28.6 µM (inactive) | 43.8 µM (inactive) | 36.7 µM (inactive) | 52.7 µM (inactive) | 33.9 µM (inactive) |  | 28.1 µM (inactive) | > 100 µM (inactive) | 43.3 µM (inactive) | > 100 µM (inactive) | 31 µM (inactive) | 49 µM (inactive) | 37.5 µM (inactive) | 92.3 µM (inactive) | > 100 µM (inactive) | 29.1 µM (inactive) | 30.1 µM (inactive) |  | 87.3 µM (inactive) |
| CCOC(=O)NN(C(=O)OCC)c1c(C)cc(C)cc1C | > 100 µM (inactive) | > 100 µM (inactive) | > 100 µM (inactive) | > 100 µM (inactive) | > 100 µM (inactive) |  | > 100 µM (inactive) | > 100 µM (inactive) | > 100 µM (inactive) | > 100 µM (inactive) | > 100 µM (inactive) | > 100 µM (inactive) |  | > 100 µM (inactive) | > 100 µM (inactive) | > 100 µM (inactive) | > 100 µM (inactive) |  | > 100 µM (inactive) |
| CC(C)(C)CNCCCNc1ccc(Cl)cc1 |  | 36 µM (inactive) | 35.8 µM (inactive) | > 100 µM (inactive) | > 100 µM (inactive) | 17.1 µM (inactive) | 3.33 µM (inactive) | 22.8 µM (inactive) | > 100 µM (inactive) | 46 µM (inactive) |  | < 0.01 µM (active) | > 100 µM (inactive) | > 100 µM (inactive) | > 100 µM (inactive) | 23.2 µM (inactive) | 24 µM (inactive) | 97.1 µM (inactive) | 18.5 µM (inactive) |
| CCOP(=O)(OCC)C(c1ccccc1)N(C(=O)NC(F)(F)F)c1cccc(F)c1 (stereo unspecified) | > 100 µM (inactive) | > 100 µM (inactive) | > 100 µM (inactive) | 58.9 µM (inactive) | > 100 µM (inactive) | > 100 µM (inactive) | 81.1 µM (inactive) | > 100 µM (inactive) | > 100 µM (inactive) | > 100 µM (inactive) | > 100 µM (inactive) | 63.8 µM (inactive) | > 100 µM (inactive) | > 100 µM (inactive) | > 100 µM (inactive) | > 100 µM (inactive) |  | > 100 µM (inactive) | > 100 µM (inactive) |
| O=S1(=O)OCCOS(=O)(=O)C1S(=O)(=O)c1ccc2ccccc2c1 | > 100 µM (inactive) | > 100 µM (inactive) | > 100 µM (inactive) | > 100 µM (inactive) | > 100 µM (inactive) | > 100 µM (inactive) | > 100 µM (inactive) | > 100 µM (inactive) | > 100 µM (inactive) | > 100 µM (inactive) | > 100 µM (inactive) | > 100 µM (inactive) | > 100 µM (inactive) | > 100 µM (inactive) | > 100 µM (inactive) | > 100 µM (inactive) | > 100 µM (inactive) | > 100 µM (inactive) |  |
| CC(=O)O[C@H]1C(=O)[C@@]2(C)[C@H]([C@H](OC(=O)c3ccccc3)[C@]3(O)C[C@H](OC(=O)[C@H](O)[C@@H](NC(=O)c4cccc(N=[N+]=[N-])c4)c4ccccc4)C(C)=C1C3(C)C)[C@]1(OC(C)=O)CO[C@@H]1C[C@@H]2O | 1.07 µM (active) | 0.0038 µM (active) | 0.00331 µM (active) | 8.32 µM (inactive) | 0.00641 µM (active) | 0.0247 µM (active) | 0.00453 µM (active) | 0.00621 µM (active) | 0.0108 µM (active) | < 0.0025 µM (active) | < 0.0025 µM (active) | < 0.0025 µM (active) | 0.327 µM (active) | 0.0129 µM (active) | 0.00621 µM (active) | 0.0149 µM (active) |  | 0.00813 µM (active) | 0.00855 µM (active) |
| COc1c(OC/C=C(\C)CCC=C(C)C)ccc2ccc(=O)oc12 [COLLININ] | > 100 µM (inactive) | 43.6 µM (inactive) | > 100 µM (inactive) | 95.9 µM (inactive) | > 100 µM (inactive) | > 100 µM (inactive) | 56.5 µM (inactive) | > 100 µM (inactive) | > 100 µM (inactive) | > 100 µM (inactive) | > 100 µM (inactive) | > 100 µM (inactive) | > 100 µM (inactive) | 65.2 µM (inactive) | > 100 µM (inactive) | > 100 µM (inactive) | > 100 µM (inactive) | > 100 µM (inactive) |  |
